# Test results taken from patent US11963962B2, “Platelet count-agnostic methods of treating myelofibrosis” (Sierra Oncology, Inc., priority 2018, dated 2024).
# Like-named read-outs stand apart in the source and are kept apart here. Marks after values point to notes of the source that are not given here.
# Legend:
# myelofibrosis [1] = assay: SIMPLIFY-1 Phase 3 trial: splenic response rate (SRR); type: in vivo, human; settings: SIMPLIFY 1, week 24
# Protocol: (§1) In the SIMPLIFY-1 trial (NCT01969838), the efficacy and safety of MMB versus ruxolitinib (RUX) was studied in patients with myelofibrosis who were naïve to treatment with a JAK inhibitor and a platelet count of ≥50×10^9/L. Patients (N=432) with high risk or intermediate-2 risk or symptomatic intermediate-1 risk myelofibrosis received 24 weeks of treatment with 200 mg MMB once daily or 20 mg RUX twice a day (or per label), after which all patients could receive open-label momelotinib. […] The primary endpoint was a reduction by at least 35% in the spleen volume at 24 weeks compared with baseline.
# (§2) FIG. 8A: SIMPLIFY-1 study of MMB in a first line population previously untreated with JAKi. For SIMPLIFY-1, the goal was non-inferiority over ruxolitinib (RUX) (MMB: N=215 subjects, and RUX: N=217 subjects). FIG. 8B: SIMPLIFY-2 study of second line population of anemic or thrombocytopenic subjects previously treated with RUX (red blood cell (RBC) transfusions on RUX=64%. RUX dose adjustment for: thrombocytopenia=21%; anemia/hematoma=35%). For SIMPLIFY-2, the goal was superiority over best available treatment (BAT) (MMB: N=104 subjects, and BAT: N=52 subjects). In both SIMPLIFY-1 and SIMPLIFY: Primary endpoint: >=35% reduction in spleen volume at 24 weeks. Secondary endpoints: Total symptom score (TSS) response at 24 weeks. Effects on RBC transfusion requirements.
# (§3) The SIMPLIFY 1 clinical trial data was reanalyzed for subgroups of subjects having particular baseline platelet counts in the MMB versus RUX arms of the study.
# (§4) Patient data was analyzed according to the following baseline platelet count (PLT) subgroups and in particular according to the threshold PLT of 150×10^9/L: 1) PLT<50×10^9/L; 2) 50×10^9/L≤PLT<100×10^9/L; 3) 100×10^9/L≤PLT<150×10^9/L. The reanalyzed data is presented in Table 13 (SIMPLIFY 1). Selected data is also illustrated in the following figures.
# myelofibrosis [2] = assay: SIMPLIFY-1 dynamic and time-to-event analyses of RBC transfusions; type: in vivo, human; settings: SIMPLIFY-1, 24 week randomized treatment period
# Description: The SIMPLIFY-1 (S1) trial, a double-blind, active-controlled Phase 3 study in which 432 patients received randomized treatment with MMB or RUX for 24 weeks was previously reported (Mesa R A, Kiladjian J J, Catalano J V. et al. “Simplify-1: A phase III randomized trial of momelotinib versus ruxolitinib in j anus kinase inhibitor—naïve patients with myelofibrosis”, Journal of Clinical Oncology, 2017; 35:3844-50).
# Since transfusion burden is of significant concern to clinicians and patients, to better understand the dynamics of RBC transfusions we further examined the S1 data through statistical models utilizing a variety of novel anemia benefit endpoints including time until transfusion and overall intensity of transfusions across time. The proportions of patients with 0 and 4 transfusions were calculated and time-to-event analyses examining time-to-first and time-to-fifth units transfused also conducted. Since transfusions typically comprise 2 units, the fifth unit transfused represents a de facto third transfusion event. The number of units transfused were also considered to be recurrent events and examined with and without patients' baseline characteristics as covariates. Finally, a mixture model, based on a zero-inflated negative binomial (ZINB) distribution fit to the transfusion data, was employed to compare between the treatment groups the proportions of subjects with zero transfusion burden and the mean transfusion rates.
# myelofibrosis [3] = assay: SIMPLIFY-1 Phase 3 trial: transfusion independence and TD to TI conversion; type: in vivo, human; settings: SIMPLIFY 1
# Description: The improved outcome from MMB therapy that results from practicing the subject methods can be manifested as an improvement in one or more clinical endpoints (e.g., as described herein), such as anemia response, in spleen response and/or symptom response. By “anemia response” is meant an increase in the patient's hemoglobin level or a patient who was transfusion dependent becoming transfusion independent. Desirably, a minimum increase in hemoglobin of 0.5 g/dL, such as 1.0 g/dL 1.5 g/dL or 2.0 g/dL lasting a minimum of 8 weeks is achieved, which is the level of improvement specified in the International Working Group (IWG) consensus criteria. However, smaller, but still medically significant, increases in hemoglobin are also considered to be within the term “anemia response”. “Transfusion independence” is an anemia endpoint and refers to a subject who required no RBC transfusions over a 12 week period and had no hemoglobin levels less than 8 g/dL to 8.5 g/dL over the 12 week period. In some embodiments, the 12 week period of transfusion independence is the terminal 12 weeks of a 24 week study period. By red blood cell (RBC) transfusion independence rate at week 24 of a study is meant the proportion of subjects who were transfusion independent at week 24, excluding cases associated with clinically overt bleeding.
# as §1, §2, §3, §4
# myelofibrosis [4] = assay: SIMPLIFY-1 Phase 3 trial: total symptom score (TSS) response at week 24; type: in vivo, human; settings: for TSS response rate: SIMPLIFY 1, week 24
# Protocol: as §1, §2, §3, §4
# myelofibrosis [5] = assay: SIMPLIFY-1 Phase 3 trial: safety (anemia, platelet counts, hemoglobin); type: in vivo, human
# Protocol: as §1
# The mean platelet count for RUX patients is demonstrably lower than the mean platelet count for MMB patients.
# The MMB subjects were thus at lower risk of developing thrombocytopenia (e.g., Grade 3 or 4 thrombocytopenia), or of having to undergo undesirable dose reduction because they were able to largely maintain their platelet counts during therapy.
# myelofibrosis [6] = settings: cited from earlier work
# [7] = ITT, platelets 50-100 (subgroup 2)
# [8] = ITT, platelets 100-150 (subgroup 3)
# [9] = baseline TSS ≥ 6, platelets 50-100 (subgroup 2)
# [10] = baseline TSS ≥ 6, platelets 100-150 (subgroup 3)
# [11] = baseline TSS ≥ 10, all patients
# [12] = baseline TSS ≥ 10, platelets 50-100 (subgroup 2)
# [13] = baseline TSS ≥ 10, platelets 100-150 (subgroup 3)
structure (smiles),measurement,setting,value
"N#CC[C@H](C1CCCC1)n1cc(-c2ncnc3[nH]ccc23)cn1 [RUX, ruxolitinib, reference compound]",SRR,"myelofibrosis [1]; ITT, all patients",29%
same,SRR,myelofibrosis [1]; [7],0%
same,SRR,myelofibrosis [1]; [8],6%
same,SRR,"myelofibrosis [1]; baseline TSS ≥ 6, all patients",29%
same,SRR,myelofibrosis [1]; [9],0%
same,SRR,myelofibrosis [1]; [10],7%
same,SRR,myelofibrosis [1]; [11],29%
same,SRR,myelofibrosis [1]; [12],0%
same,SRR,myelofibrosis [1]; [13],5%
same,Kaplan-Meier estimate of the proportion of patients who did not require any units transfused,myelofibrosis [2],46%
same,proportion of patients requiring 4 or fewer units,myelofibrosis [2],62%
same,patients with transfusion independence promoted and maintained (TI rate),myelofibrosis [3],49%
same,Week 24 TI rate,"myelofibrosis [3]; ITT, all patients",49%
same,Week 24 TI rate,myelofibrosis [3]; [7],39%
same,Week 24 TI rate,myelofibrosis [3]; [8],45%*
same,Week 24 TI rate,"myelofibrosis [3]; baseline TSS ≥ 6, all patients",48%
same,Week 24 TI rate,myelofibrosis [3]; [9],36%
same,Week 24 TI rate,myelofibrosis [3]; [10],41%
same,Week 24 TI rate,myelofibrosis [3]; [11],51%
same,Week 24 TI rate,myelofibrosis [3]; [12],32%
same,Week 24 TI rate,myelofibrosis [3]; [13],45%*
same,TSS response rate,"myelofibrosis [4]; ITT, all patients",41%
same,TSS response rate,myelofibrosis [4]; [7],22%
same,TSS response rate,myelofibrosis [4]; [8],39%*
same,TSS response rate,"myelofibrosis [4]; baseline TSS ≥ 6, all patients",42%
same,TSS response rate,myelofibrosis [4]; [9],23%
same,TSS response rate,myelofibrosis [4]; [10],33%
same,TSS response rate,myelofibrosis [4]; [11],43%
same,TSS response rate,myelofibrosis [4]; [12],21%
same,TSS response rate,myelofibrosis [4]; [13],35%
same,Total Symptom Score (TSS) response,"myelofibrosis [4]; SIMPLIFY-1, overall",42.2%
same,anemia rate,myelofibrosis [5]; SIMPLIFY 1,38%
same,≥Grade 3 anemia rate,myelofibrosis [5]; SIMPLIFY 1,23%
same,platelet counts during treatment,"myelofibrosis [5]; SIMPLIFY 1, 24 week double blind phase, FIGS. 31-33",significant reductions in platelet counts from baseline
same,median time to recovery of platelet counts above 50×10^9/L,myelofibrosis [6]; after dose reduction or dose interruption,14 days
same,median time to onset of thrombocytopenia,myelofibrosis [6]; patients who developed Grade 3 or 4 thrombocytopenia,approximately 8 weeks
same,frequency of Grade 3 or 4 thrombocytopenia,myelofibrosis [6]; patients with a platelet count of 100×10^9 to 200×10^9/L before starting ruxolitinib,17%
same,frequency of Grade 3 or 4 thrombocytopenia,myelofibrosis [6]; patients with an entry platelet count greater than 200×10^9/L,7%
